This series concerns caspase 3. Put plainly: Caspase 3 activity by western blot of PARP and α-spectrin fragments. The class given is cell-based, human. The note with it: MCF7, MDA-MB-231, and MDA-MB-468 cells, 24 hours post-transfection. From the text: FIGS. 11A & 11B. Effect of apMNKQ2 on caspase 3 activity by means of PARP and α-spectrin substrates in breast cell lines. Immunodetection with specific antibodies by means of 12% SDS-PAGE of “cleaved” PARP (FIG. 11A) and α-spectrin (FIG. 11B) for detecting the proteolytic activity of caspase 3 after the transfection of lines MCF7, MDA-MB-231, and MDA-MB-468 with apMNKQ2 and the control aptamer AT. The activity of this protease gives rise to characteristic proteolysis patterns with specific fragments of 89 kDa for PARP and 150 and 120 kDa for α-spectrin.
Caspase 3 activity was assessed by means of western blot with two endogenous substrates of this protein: • the enzyme poly ADP-ribose (PARP), fractionated in late apoptotic stages, using a specific antibody that only recognizes the PARP fragment processed by caspase 3. • the protein α-spectrin, with an antibody capable of recognizing the complete form and the fragments obtained after being broken down by caspase 3. Colony Formation Assays
Similarly, to verify that apMNKQ2 is capable of increasing apoptosis in the cell lines, the activity of caspase 3, a protease activated in apoptosis, was assessed. The western blot study was performed on two endogenous substrates of caspase 3: the enzyme poly ADP-ribose (PARP), fractionated in late apoptotic stages, and the protein α-spectrin. […]

These results are taken from US12492403B2, “Aptamers and the use thereof in the treatment of cancer” (FUNDACIÓN PARA LA INVESTIGACIÓN BIOMÉDICA DEL HOSPITAL …, priority 2018, dated 2025).

As for “5′TGGGGTGGGCGGGCGGGGGTGGGGGTGGT-3′ (DNA, backbone and methylation of C not given here; further chemistry not fully specified) [apMNKQ2]”, the “caspase 3 activity (proteolysis fragments of PARP and α-spectrin)” value was “apoptotic effect”.
